Laboratory results taken from US20120321579A1, “SURFACTANT COMPOSITIONS” (ANTERIOS, INC., priority 2011, published 2012).

Tested on: Axillary Sweating
Assay: Clinical study to evaluate effect of Polysorbate 80 on axillary sweating (gravimetric sweat measurement)
Assay type: in vivo, human

In the case of Polysorbate 80, the “conclusion on activity in reducing sweat production” value (conclusion from the clinical study) is reported as “biologically active in reducing sweat production”, the “reduction in sweat production (average) as measured by gravimetric sweat measurement” value (two weeks after a single topical treatment, 14.34 mg Polysorbate 80 per axilla (0.3 mL/axilla), subjects with moderate to severe primary axillary hyperhidrosis, 5 minute collection) is reported as 159 mg and the “greater reduction in sweat production than the subjects in the control group (placebo, water)” value (two weeks after a single topical treatment, 14.34 mg per axilla, 159 mg versus 53 mg placebo) is reported as 300%. For the same substance, the “percent of subjects with at least a 30% reduction in sweat production when compared to levels at the Baseline visit” value (two weeks after a single topical treatment, 14.34 mg per axilla, gravimetric sweat measurement) was 80% and the “greater effectiveness in reducing sweat production than subjects treated with placebo (responder assessment)” value (two weeks after a single topical treatment, 80% versus 29% of subjects with at least a 30% reduction) was 280%.
